Each compound was assayed against T1, NBD1 (Homo sapiens, UniProt P13569) (assay: Aggregation analysis using differential static light scattering (DSLS), thermal stability of NBD1 (ΔTagg)). Settings: ΔTagg versus DMSO control, NBD1 0.2 mg/ml.
T1 construct: Purified recombinant NBD1 was produced using previously described methods; made in house
Type: binding
Description: Example 386. Aggregation Analysis Using Differential Static Light Scattering (DSLS)
Purified recombinant NBD1 was produced using previously described methods (A. Schmidt, J. L. Mendoza, P. J. Thomas (2011) Biochemical and Biophysical Approaches to Probe CFTR Structure (365-376) M. D. Amaral, K. Kunzelmann (eds.), Cystic Fibrosis, Methods in Molecular Biology 741, Springer Science+Business Media). The effect of test compounds on thermal stability of NBD1 was evaluated by differential static light scattering (DSLS) using the Harbinger Stargazer-384 instrument (Epiphyte Three, Toronto, Canada). Test compounds were dissolved and diluted to desired concentrations in 100% DMSO. The compounds or DMSO controls (100 nL) were stamped into wells of a […] low volume optical plate (Corning Inc., Corning, NY) using the Echo 555 acoustic liquid handler (Labcyte Inc., San Jose, CA).
NBD1 protein was diluted to 0.2 mg/ml in S200 buffer (50 mM Tris-HCl, 150 mM NaCl, 5 mM MgCl2, 2 mM ATP, 2 mM DTT, pH7.6) containing 1% glycerol. 10 uL of protein solution was aliquoted into the 384-well plate harboring the test compounds and 10 uL mineral oil was overlaid onto the protein solution, using the epMotion robotic liquid handler (Eppendorf North America, Hauppauge, NY). After placing into the Stargazer instrument, the plate was heated at 1° C. per minute to 70° C. Images were captured from 25° C. to 70° C. every 0.5° C. At the end of the experiment run, instrument software integrated image files and analyzed data automatically. A […] regression curve was generated for each well, representing the increase in light scattering over time. A temperature of aggregation (Tagg) was calculated based on the inflection point of the curve. To better compare data across experiments the average Tagg for DMSO control wells was calculated and subtracted from values for wells containing compounds to obtain a “ΔTagg” value. These ΔTagg values reflect stabilizing efficacy of the compounds. As set forth in Table 2 below, an ΔTagg value less than or equal to 5° C. is marked “A”; a value above 5° C. and less than or equal to 10° C. is marked “B”; a value greater than 10° C. and less than or equal to 25° C. is marked “C”.

T1 sequence (P13569 423-646 limits assumed): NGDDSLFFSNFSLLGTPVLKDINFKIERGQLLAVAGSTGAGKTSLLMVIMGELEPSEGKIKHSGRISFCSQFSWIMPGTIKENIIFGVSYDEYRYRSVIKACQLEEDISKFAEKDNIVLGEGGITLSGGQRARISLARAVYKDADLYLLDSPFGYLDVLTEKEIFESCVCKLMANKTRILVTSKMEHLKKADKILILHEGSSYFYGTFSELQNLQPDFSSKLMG

Row | Structure (SMILES) | DSLS 3D (100 μM ΔT)
1 | CC1c2ccnc(c2)-c2nc(nn2C)[C@@](C)(c2cccc(CC(C)(C)C(=O)O)c2)CCCC(C)(C)CS(=O)(=O)CCc2c1c(F)c(F)c1[nH]ccc21 (single isomer, unassigned) [Compound 318A] | A (an ΔTagg value less than or equal to 5 °C is marked “A”)
2 | C[C@@H](Cc1cccc([C@@]2(C)CCCC(C)(C)CS(=O)(=O)CC(N)c3c(c(F)cc4[nH]ccc34)Sc3ccc(F)c(c3)-c3nc2nn3C)c1)C(N)=O (single isomer, unassigned) [Compound 370B] | A (an ΔTagg value less than or equal to 5 °C is marked “A”)
3 | COCC(Cc1cccc([C@@]2(C)CCCC(C)(C)CS(=O)(=O)CCc3c(c(F)c(F)c4[nH]ccc34)[S+]([O-])c3ccnc(c3)-c3nc2nn3C)c1)C(=O)O (single isomer, unassigned) [Compound 375] | B (a value above 5 °C and less than or equal to 10 °C is marked “B”)
4 | Cn1nc2nc1-c1cc(ccn1)Cc1c(F)cc3[nH]ccc3c1CCS(=O)(=O)CC(C)(C)CCC[C@]2(C)c1cccc(CC2(C(=O)O)CC2)c1 [Compound 313, 1-[[3-[(6R)-22-Fluoro-3,6,10,10-tetramethyl-12,12-dioxo-12λ6-thia-3,4,19,28,30-pentazapentacyclo[23.3.1.12,5.015,23.016,20]triaconta-1(29),2(30),4,15,17,20,22,25,27-nonaen-6-yl]phenyl]methyl]cyclopropanecarboxylic acid] | B (a value above 5 °C and less than or equal to 10 °C is marked “B”)
5 | C[C@H](Cc1cccc(C2NCCOCCS(=O)(=O)Cc3c(c(F)c(F)c4[nH]ccc34)Oc3ccc(F)c(c3)-c3nc2nn3C)c1)C(=O)O (single isomer, unassigned) [Compound 381B] | A (an ΔTagg value less than or equal to 5 °C is marked “A”)
6 | Cn1nc2nc1-c1cc(ccn1)[S+]([O-])c1c(F)cc3[nH]ccc3c1CCS(=O)(=O)CC(C)(C)CCC[C@]2(C)c1cccc(C[C@@H](O)CO)c1 (single isomer, unassigned) [Compound 337] | A (an ΔTagg value less than or equal to 5 °C is marked “A”)
7 | Cn1nc2nc1-c1cc(ccc1F)Oc1c(F)c(F)c3[nH]cc(CC(=O)O)c3c1CCS(=O)(=O)CC(C)(C)CCC[C@]2(C)c1ccccc1 [Compound 361, 2-[(6R)-21,22,28-Trifluoro-3,6,10,10-tetramethyl-12,12-dioxo-6-phenyl-24-oxa-12λ6-thia-3,4,19,30-tetrazapentacyclo[23.3.1.12,5.015,23.016,20]triaconta-1(29),2(30),4,15,17,20,22,25,27-nonaen-17-yl]acetic Acid] | A (an ΔTagg value less than or equal to 5 °C is marked “A”)
8 | CCOC(=O)[C@@H](C)Cc1cccc(C2CCCC(C)(C)CS(=O)(=O)CCc3c(c(F)cc4[nH]ccc34)C(=O)c3cccc(c3)-c3ccn2n3)c1 (stereo partly drawn) [Compound 161, Ethyl (2S)-3-[3-(22-fluoro-10,10-dimethyl-12,12,24-trioxo-12λ6-thia-5,19,30-triazapentacyclo[23.3.1.12,5.015,23.016,20]triaconta-1(29),2(30),3,15,17,20,22,25,27-nonaen-6-yl)phenyl]-2-methyl-propanoate] | A (an ΔTagg value less than or equal to 5 °C is marked “A”)
9 | COC(=O)[C@H](C)Cc1cccc([C@@]2(C)CCCC(C)(C)CS(=O)(=O)CCc3c(c(F)cc4[nH]ccc34)Sc3cc(c(F)cc3O)-c3nc2nn3C)c1 [Compound 376, Methyl (2R)-3-[3-[(6R)-22,28-difluoro-26-hydroxy-3,6,10,10-tetramethyl-12,12-dioxo-12λ6,24-dithia-3,4,19,30-tetrazapentacyclo[23.3.1.12,5.015,23.016,20]triaconta-1(29),2(30),4,15,17,20,22,25,27-nonaen-6-yl]phenyl]-2-methyl-propanoate] | A (an ΔTagg value less than or equal to 5 °C is marked “A”)
10 | C[C@H](Cc1cccc([C@@]2(C)CCCC(C)(C)CS(=O)(=O)CCc3c(c(F)cc4[nH]ccc34)[S+]([O-])c3cc(c(F)cc3N)-c3nc2nn3C)c1)C(=O)O (single isomer, unassigned) [Compound 379A] | A (an ΔTagg value less than or equal to 5 °C is marked “A”)
11 | COCC(Cc1cccc([C@@]2(C)CCCC(C)(C)CS(=O)(=O)CCc3c(c(F)c(F)c4[nH]ccc34)[S+]([O-])c3ccc(F)c(c3)-c3nc2nn3C)c1)C(=O)O (single isomer, unassigned) [Compound 371] | B (a value above 5 °C and less than or equal to 10 °C is marked “B”)
12 | C[C@@H](Cc1cccc(C2CCCC(C)(C)CS(=O)(=O)CCc3c(c(F)cc4[nH]ccc34)Oc3ccc(F)c(c3)-c3nn2cc3C#N)c1)C(=O)O (mixture of isomers) [Compound 152, (2S)-3-[3-(3-Cyano-22,28-difluoro-10,10-dimethyl-12,12-dioxo-24-oxa-12λ6-thia-5,19,30-triazapentacyclo[23.3.1.12,5.015,23.016,20]triaconta-1(29),2(30),3,15,17,20,22,25,27-nonaen-6-yl)phenyl]-2-methyl-propanoic Acid] | C (a value greater than 10 °C and less than or equal to 25 °C is marked “C”)
13 | Cn1nc2nc1-c1cc(ccn1)[S+]([O-])c1c(F)c(F)c3[nH]ccc3c1CCS(=O)(=O)CC(C)(C)CCC[C@]2(C)c1cccc(C[C@H](O)CO)c1 (single isomer, unassigned) [Compound 341] | B (a value above 5 °C and less than or equal to 10 °C is marked “B”)
14 | C[C@H](Cc1cccc([C@@]2(C)CCCC(C)(C)CS(=O)(=O)CCc3c(c(F)c(F)c4[nH]ccc34)S(=O)(=O)c3ccc(F)c(c3)-c3nc2nn3C)c1)C(=O)O [Compound 320, (2R)-2-Methyl-3-[3-[(6R)-21,22,28-trifluoro-3,6,10,10-tetramethyl-12,12,24,24-tetraoxo-12λ6,24λ6-dithia-3,4,19,30-tetrazapentacyclo[23.3.1.12,5.015,23.016,20]triaconta-1(29),2(30),4,15,17,20,22,25,27-nonaen-6-yl]phenyl]propanoic acid] | B (a value above 5 °C and less than or equal to 10 °C is marked “B”)
15 | CC1c2ccnc(c2)-c2nc(nn2C)[C@@](C)(c2cccc(C[C@@H](C)C(=O)O)c2)CCCC(C)(C)CS(=O)(=O)CCc2c1c(F)c(F)c1[nH]ccc21 (single isomer, unassigned) [Compound 317A] | B (a value above 5 °C and less than or equal to 10 °C is marked “B”)
16 | CC(Cc1cccc(C2(CNCC(F)F)CCCC(C)(C)CS(=O)(=O)CCc3c(c(F)cc4[nH]ccc34)Oc3ccc(F)c(c3)-c3nc2nn3C)c1)C(=O)O (single isomer, unassigned) [Compound 137A, 3-[3-[6-[(2,2-difluoroethylamino)methyl]-22,28-difluoro-3,10,10-trimethyl-12,12-dioxo-24-oxa-12λ6-thia-3,4,19,30-tetrazapentacyclo[23.3.1.12,5.015,23.016,20]triaconta-1(29),2(30),4,15,17,20,22,25,27-nonaen-6-yl]phenyl]-2-methyl-propanoic Acid] | C (a value greater than 10 °C and less than or equal to 25 °C is marked “C”)
17 | C[C@H](Cc1cccc([C@@]2(C)CCCC(C)(C)CS(=O)(=O)CCc3c(c(F)cc4[nH]ccc34)[S+]([O-])c3cc(c(F)cc3N)-c3nc2nn3C)c1)C(=O)O (single isomer, unassigned) [Compound 379B] | A (an ΔTagg value less than or equal to 5 °C is marked “A”)
18 | Cc1c[nH]c2c(F)c(F)c3c(c12)CCS(=O)(=O)CC(C)(C)CCC[C@](C)(c1cccc(C[C@@H](C)C(=O)O)c1)c1nc(n(C)n1)-c1cc(ccc1F)O3 [Compound 321, (2R)-2-Methyl-3-[3-[(6R)-21,22,28-trifluoro-3,6,10,10,17-pentamethyl-12,12-dioxo-24-oxa-12λ6-thia-3,4,19,30-tetrazapentacyclo[23.3.1.12,5.015,23.016,20]triaconta-1(29),2(30),4,15,17,20,22,25,27-nonaen-6-yl]phenyl]propanoic Acid] | A (an ΔTagg value less than or equal to 5 °C is marked “A”)
19 | Cn1nc2nc1-c1cc(ccc1F)S(=O)(=O)c1c(F)cc3[nH]ccc3c1CCS(=O)(=O)CC(C)(C)CCC[C@]2(C)c1cccc(CC(C)(C)C(=O)O)c1 [Compound 348A, 3-[3-[(6R)-22,28-Difluoro-3,6,10,10-tetramethyl-12,12,24,24-tetraoxo-12λ6,24λ6-dithia-3,4,19,30-tetrazapentacyclo[23.3.1.12,5.015,23.016,20]triaconta-1(29),2(30),4,15,17,20,22,25,27-nonaen-6-yl]phenyl]-2,2-dimethyl-propanoic Acid] | A (an ΔTagg value less than or equal to 5 °C is marked “A”)
